Laboratory results from ChEMBL document CHEMBL5331134, “Identification of Brain-Penetrant ATP-Competitive mTOR Inhibitors for CNS Syndromes” (J Med Chem, 2023).
In brackets after ≈: the same amount, converted by molar mass.

Assays:
[1] = biological target: T1, Serine/threonine-protein kinase mTOR (Mus musculus, UniProt Q9JLN9); test: Inhibition of mTOR in Tsc1 knockout mouse neurons assessed as reduction in phosphorylated S6 level incubated for 4 hrs by Hoechst staining based immunofluorescence analysis; assay type: cell-based, Neuron
[2] = biological target: 3',5'-cyclic-AMP phosphodiesterase 4D (Homo sapiens, UniProt Q08499); test: Inhibition of PDE4D (unknown origin)
[3] = biological target: T1, Serine/threonine-protein kinase mTOR; test: Inhibition of mTOR in TSC1 knockout mouse MEF cells assessed as reduction in phosphorylated S6 level at serine 240/244 residues incubated for 2 hrs by Hoechst/Alexa Fluor 647 staining based analysis; assay type: cell-based
[4] = Apparent permeability across basolateral to apical side in MDCK-MDR1 cells; assay type: ADME, cell-based, Canis lupus familiaris; conditions: dog
[5] = Efflux ratio of apparent permeability across basolateral to apical side over apical to basolateral side in MDCK-MDR1 cells; assay type: ADME, cell-based, Canis lupus familiaris; conditions: dog
[6] = Apparent permeability across apical to basolateral side in MDCK-MDR1 cells; assay type: ADME, cell-based, Canis lupus familiaris; conditions: dog
Cytochrome P450 3A4 [7] = biological target: T2, Cytochrome P450 3A4 (Homo sapiens, UniProt P08684); test: Inhibition of CYP3A4 (unknown origin) assessed as Kobs; assay type: ADME
[8] = Solubility of compound at pH 6.8; assay type: physicochemical; conditions: buffer
[9] = biological target: Serine/threonine-protein kinase ATR (Homo sapiens, UniProt Q13535); test: Inhibition of ATR (unknown origin)-driven CHK1 phosphorylation
[10] = Genotoxicity in human TK6 cells assessed as micronuclei formation by micronucleus test; assay type: toxicity, cell-based
[11] = biological target: 1-phosphatidylinositol 3-phosphate 5-kinase (Homo sapiens) (UniProt Q9Y2I7); test: Inhibition of PIKfyve in human U2OS cells coexpressing GFP-tagged FoxO3alpha assessed as residual activity at 10 uM incubated for 2 to 24 hrs by Hoechst staining based analysis relative to control; assay type: cell-based; conditions: time 2-24 hrs
[12] = biological target: Serine/threonine-protein kinase mTOR (Homo sapiens) (UniProt P42345); test: Inhibition of mTOR (unknown origin) assessed as residual activity at 10 uM relative to control
[13] = Metabolic stability in human liver microsomes assessed as intrinsic clearance at 1 uM incubated for 30 mins in presence of NADPH by LC-MS/MS analysis; assay type: ADME, Microsome; conditions: read-out: CLH
Cytochrome P450 3A4 [14] = biological target: T2, Cytochrome P450 3A4; test: Inhibition of CYP3A4 (unknown origin); assay type: ADME
[15] = Metabolic stability in cynomolgus monkey liver microsomes assessed as intrinsic clearance at 1 uM incubated for 30 mins in presence of NADPH by LC-MS/MS analysis; assay type: ADME, Macaca fascicularis, Microsome; conditions: read-out: CLH
[16] = biological target: Myosin light chain kinase, smooth muscle (Homo sapiens) (UniProt Q15746); test: Inhibition of MYLK (unknown origin) assessed as residual activity at 10 uM relative to control
[17] = Genotoxicity in human TK6 cells assessed as micronuclei formation in presence of S9 fraction measured after 20 hrs by micronucleus test; assay type: toxicity, subcellular; conditions: s9, 20 h
CYP2D6 = CYP2D6 (Homo sapiens, UniProt P10635); test: Inhibition of CYP2D6 (unknown origin); assay type: ADME
[18] = biological target: Dual specificity tyrosine-phosphorylation-regulated kinase 1A (Homo sapiens) (UniProt Q13627); test: Inhibition of DYRK1A (unknown origin) assessed as residual activity at 10 uM relative to control
[19] = Metabolic stability in dog liver microsomes assessed as intrinsic clearance at 1 uM incubated for 30 mins in presence of NADPH by LC-MS/MS analysis; assay type: ADME, Canis lupus familiaris, Microsome; conditions: read-out: CLH
[20] = Phototoxicity against mouse BALB/3T3 clone A31 cells assessed as photo-irradiation factor incubated for 1 hr followed by irradiated with 5 J/cm^2 of light dose measured after 24 hrs by neutral red uptake assay; assay type: toxicity, cell-based; conditions: balb/3t3 clone a31, 1 h
CYP2C9 = CYP2C9 (Homo sapiens, UniProt P11712); test: Inhibition of CYP2C9 (unknown origin); assay type: ADME
[21] = Genotoxicity in human TK6 cells assessed as micronuclei formation in presence of S9 fraction measured after 3 hrs by micronucleus test; assay type: toxicity, subcellular; conditions: s9, 3 h
[22] = Genotoxicity in human TK6 cells assessed as micronuclei formation in absence of S9 fraction measured after 3 hrs by micronucleus test; assay type: toxicity, cell-based; conditions: tk6, 3 h
[23] = Phototoxicity against mouse BALB/3T3 clone A31 cells assessed as reduction in cell viability incubated for 1 hr followed by irradiated with 5 J/cm^2 of light dose measured after 24 hrs by neutral red uptake assay; assay type: toxicity, cell-based; conditions: balb/3t3 clone a31, 1 h
[24] = Metabolic stability in mouse liver microsomes assessed as intrinsic clearance at 1 uM incubated for 30 mins in presence of NADPH by LC-MS/MS analysis; assay type: ADME, Microsome; conditions: read-out: CLH
[25] = Genotoxicity in human TK6 cells assessed as micronuclei formation in absence of S9 fraction measured after 20 hrs by micronucleus test; assay type: toxicity, cell-based; conditions: tk6, 20 h

Sequence of Serine/threonine-protein kinase ATR (Q13535 whole entry): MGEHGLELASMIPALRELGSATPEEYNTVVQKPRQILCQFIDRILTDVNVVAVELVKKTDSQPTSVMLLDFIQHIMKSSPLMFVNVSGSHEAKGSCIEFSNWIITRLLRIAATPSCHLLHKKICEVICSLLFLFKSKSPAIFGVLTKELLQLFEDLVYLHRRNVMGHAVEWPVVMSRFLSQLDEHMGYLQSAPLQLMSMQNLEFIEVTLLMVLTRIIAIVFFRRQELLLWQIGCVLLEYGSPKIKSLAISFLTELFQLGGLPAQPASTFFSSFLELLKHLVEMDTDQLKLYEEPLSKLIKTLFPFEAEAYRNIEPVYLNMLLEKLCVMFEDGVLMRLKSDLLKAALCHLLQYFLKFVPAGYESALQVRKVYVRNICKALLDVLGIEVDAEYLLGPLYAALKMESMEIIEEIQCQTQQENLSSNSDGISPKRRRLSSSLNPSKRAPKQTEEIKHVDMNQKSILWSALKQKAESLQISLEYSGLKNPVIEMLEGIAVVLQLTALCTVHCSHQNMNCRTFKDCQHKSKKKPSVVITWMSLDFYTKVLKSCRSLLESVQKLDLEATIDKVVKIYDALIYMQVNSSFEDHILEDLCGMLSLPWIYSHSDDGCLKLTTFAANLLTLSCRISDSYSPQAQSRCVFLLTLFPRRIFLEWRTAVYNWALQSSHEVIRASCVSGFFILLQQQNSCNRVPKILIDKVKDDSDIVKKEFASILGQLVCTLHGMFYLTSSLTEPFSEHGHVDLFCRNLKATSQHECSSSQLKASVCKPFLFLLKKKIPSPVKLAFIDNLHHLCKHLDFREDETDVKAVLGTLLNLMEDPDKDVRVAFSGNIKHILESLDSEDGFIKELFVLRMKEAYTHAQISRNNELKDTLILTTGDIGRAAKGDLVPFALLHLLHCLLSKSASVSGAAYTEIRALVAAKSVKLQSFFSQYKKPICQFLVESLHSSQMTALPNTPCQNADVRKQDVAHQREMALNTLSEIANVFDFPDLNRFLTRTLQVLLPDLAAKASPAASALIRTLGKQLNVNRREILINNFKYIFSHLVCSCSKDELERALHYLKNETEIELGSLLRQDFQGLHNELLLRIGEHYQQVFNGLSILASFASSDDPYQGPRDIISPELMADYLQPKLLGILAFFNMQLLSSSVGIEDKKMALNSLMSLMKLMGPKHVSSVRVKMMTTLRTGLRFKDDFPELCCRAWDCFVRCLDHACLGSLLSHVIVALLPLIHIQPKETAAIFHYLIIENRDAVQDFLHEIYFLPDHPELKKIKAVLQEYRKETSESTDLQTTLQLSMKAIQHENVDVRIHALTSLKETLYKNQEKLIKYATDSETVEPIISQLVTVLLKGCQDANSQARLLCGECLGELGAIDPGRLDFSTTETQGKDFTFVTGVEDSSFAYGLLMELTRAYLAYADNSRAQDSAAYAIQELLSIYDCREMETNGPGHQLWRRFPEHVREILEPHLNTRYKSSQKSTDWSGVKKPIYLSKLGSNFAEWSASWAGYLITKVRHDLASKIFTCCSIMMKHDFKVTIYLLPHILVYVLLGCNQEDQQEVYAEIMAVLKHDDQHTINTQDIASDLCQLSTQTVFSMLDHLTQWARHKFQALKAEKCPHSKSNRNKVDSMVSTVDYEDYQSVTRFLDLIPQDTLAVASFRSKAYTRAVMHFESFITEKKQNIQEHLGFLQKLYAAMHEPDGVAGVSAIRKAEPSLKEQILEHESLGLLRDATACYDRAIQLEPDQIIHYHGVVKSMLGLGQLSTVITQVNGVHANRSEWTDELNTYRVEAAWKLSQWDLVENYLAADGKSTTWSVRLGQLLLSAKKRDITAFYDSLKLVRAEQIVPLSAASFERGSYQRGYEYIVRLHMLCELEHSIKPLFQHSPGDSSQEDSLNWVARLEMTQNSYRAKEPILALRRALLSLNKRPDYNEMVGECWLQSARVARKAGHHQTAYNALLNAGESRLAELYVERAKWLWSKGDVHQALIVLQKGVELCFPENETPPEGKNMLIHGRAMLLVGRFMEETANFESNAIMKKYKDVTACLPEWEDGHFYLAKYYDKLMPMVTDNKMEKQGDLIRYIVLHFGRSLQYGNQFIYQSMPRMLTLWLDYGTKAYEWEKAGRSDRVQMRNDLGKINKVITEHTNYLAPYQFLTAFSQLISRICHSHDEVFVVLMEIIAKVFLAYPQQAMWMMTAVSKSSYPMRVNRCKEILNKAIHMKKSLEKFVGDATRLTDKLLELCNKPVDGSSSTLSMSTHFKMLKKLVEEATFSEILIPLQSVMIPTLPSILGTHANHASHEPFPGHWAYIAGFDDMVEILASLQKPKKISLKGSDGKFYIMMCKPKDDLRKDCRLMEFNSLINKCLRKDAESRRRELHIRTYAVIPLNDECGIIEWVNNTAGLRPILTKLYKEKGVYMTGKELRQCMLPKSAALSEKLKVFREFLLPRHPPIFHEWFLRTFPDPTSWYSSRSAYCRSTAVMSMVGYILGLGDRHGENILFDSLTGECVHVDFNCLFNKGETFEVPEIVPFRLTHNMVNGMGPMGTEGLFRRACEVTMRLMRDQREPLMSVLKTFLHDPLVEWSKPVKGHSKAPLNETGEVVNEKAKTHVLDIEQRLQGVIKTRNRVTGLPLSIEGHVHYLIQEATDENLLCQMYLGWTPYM
T2 sequence (P08684 whole entry): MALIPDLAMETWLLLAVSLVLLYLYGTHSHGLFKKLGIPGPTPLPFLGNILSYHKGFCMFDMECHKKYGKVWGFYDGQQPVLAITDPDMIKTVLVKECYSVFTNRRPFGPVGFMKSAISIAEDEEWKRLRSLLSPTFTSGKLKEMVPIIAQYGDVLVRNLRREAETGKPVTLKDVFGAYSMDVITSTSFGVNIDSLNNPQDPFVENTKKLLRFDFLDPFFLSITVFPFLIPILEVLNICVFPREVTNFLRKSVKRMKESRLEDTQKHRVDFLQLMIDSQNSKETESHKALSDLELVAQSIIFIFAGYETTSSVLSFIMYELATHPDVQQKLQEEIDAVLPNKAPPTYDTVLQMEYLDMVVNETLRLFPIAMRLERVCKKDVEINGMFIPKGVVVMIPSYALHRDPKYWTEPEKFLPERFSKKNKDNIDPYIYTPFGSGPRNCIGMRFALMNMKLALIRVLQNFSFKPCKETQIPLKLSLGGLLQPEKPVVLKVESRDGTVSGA
Sequence of 3',5'-cyclic-AMP phosphodiesterase 4D (Q08499 whole entry): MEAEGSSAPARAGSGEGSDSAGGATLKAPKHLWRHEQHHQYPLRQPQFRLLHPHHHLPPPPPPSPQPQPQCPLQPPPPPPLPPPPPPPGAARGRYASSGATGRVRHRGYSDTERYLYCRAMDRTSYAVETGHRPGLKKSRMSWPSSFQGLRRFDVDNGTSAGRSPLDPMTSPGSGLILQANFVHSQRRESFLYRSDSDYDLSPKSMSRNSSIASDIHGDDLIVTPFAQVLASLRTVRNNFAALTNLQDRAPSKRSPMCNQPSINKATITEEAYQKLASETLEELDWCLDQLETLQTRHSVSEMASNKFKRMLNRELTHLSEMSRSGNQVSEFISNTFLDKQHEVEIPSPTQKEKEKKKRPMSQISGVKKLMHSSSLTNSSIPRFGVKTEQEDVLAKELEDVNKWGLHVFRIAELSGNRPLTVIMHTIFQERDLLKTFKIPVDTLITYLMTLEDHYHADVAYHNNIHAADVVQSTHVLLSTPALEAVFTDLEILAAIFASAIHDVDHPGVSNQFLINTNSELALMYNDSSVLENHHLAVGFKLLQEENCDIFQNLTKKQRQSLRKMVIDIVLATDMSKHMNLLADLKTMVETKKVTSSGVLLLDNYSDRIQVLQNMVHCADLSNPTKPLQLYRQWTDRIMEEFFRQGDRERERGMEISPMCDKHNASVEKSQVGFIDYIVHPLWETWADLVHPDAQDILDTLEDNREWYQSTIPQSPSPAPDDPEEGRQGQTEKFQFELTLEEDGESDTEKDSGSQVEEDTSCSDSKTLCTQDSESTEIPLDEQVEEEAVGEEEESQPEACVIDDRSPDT
Sequence of CYP2D6 (P10635 whole entry): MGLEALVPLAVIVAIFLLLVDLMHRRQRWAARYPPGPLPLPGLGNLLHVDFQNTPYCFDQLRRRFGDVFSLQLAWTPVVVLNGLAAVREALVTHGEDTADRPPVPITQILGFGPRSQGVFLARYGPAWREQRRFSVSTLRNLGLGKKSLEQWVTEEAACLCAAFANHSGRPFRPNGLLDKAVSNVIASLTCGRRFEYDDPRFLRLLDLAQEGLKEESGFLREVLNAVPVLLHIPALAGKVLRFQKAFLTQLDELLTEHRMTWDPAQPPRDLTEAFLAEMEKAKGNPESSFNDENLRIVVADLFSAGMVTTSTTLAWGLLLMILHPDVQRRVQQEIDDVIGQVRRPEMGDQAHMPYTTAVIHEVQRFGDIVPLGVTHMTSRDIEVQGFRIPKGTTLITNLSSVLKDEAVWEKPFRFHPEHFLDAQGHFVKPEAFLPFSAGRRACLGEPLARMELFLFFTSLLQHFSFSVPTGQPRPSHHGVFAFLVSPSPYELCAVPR
Sequence of CYP2C9 (P11712 whole entry): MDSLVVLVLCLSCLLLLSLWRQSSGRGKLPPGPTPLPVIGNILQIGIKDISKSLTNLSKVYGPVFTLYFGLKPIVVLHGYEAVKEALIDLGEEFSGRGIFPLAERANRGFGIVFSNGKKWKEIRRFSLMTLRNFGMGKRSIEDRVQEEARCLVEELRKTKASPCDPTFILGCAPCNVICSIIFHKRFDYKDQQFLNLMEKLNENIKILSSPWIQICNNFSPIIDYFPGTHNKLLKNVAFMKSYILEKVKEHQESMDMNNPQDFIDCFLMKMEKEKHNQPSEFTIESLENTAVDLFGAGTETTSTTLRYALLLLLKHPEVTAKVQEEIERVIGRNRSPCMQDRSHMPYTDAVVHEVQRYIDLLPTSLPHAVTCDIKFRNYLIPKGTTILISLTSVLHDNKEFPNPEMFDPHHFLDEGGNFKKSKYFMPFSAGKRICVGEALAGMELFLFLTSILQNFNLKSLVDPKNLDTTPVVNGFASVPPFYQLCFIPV

IC50 [2] [nM] | IC50 [3] [nM] | Papp B→A [4] [×10⁻⁶ cm/s] | efflux ratio [5] | Papp A→B [6] [×10⁻⁶ cm/s] | Kobs (Cytochrome P450 3A4 [7]) [min⁻¹] | solubility [8] [µg/mL] | IC50 [9] [nM] | SMILES | other results
– | – | – | – | – | – | – | – | CO[C@H]1C[C@@H]2CC[C@@H](C)[C@@](O)(O2)C(=O)C(=O)N2CCCC[C@H]2C(=O)O[C@H]([C@H](C)C[C@@H]2CC[C@@H](OCCO)[C@H](OC)C2)CC(=O)[C@H](C)/C=C(\C)[C@@H](O)[C@@H](OC)C(=O)[C@H](C)C[C@H](C)/C=C/C=C/C=C/1C [EVEROLIMUS] | IC50 [1]: 0.005 nM
16000 | 34 | – | – | – | – | – | – | C[C@@H]1COCCN1c1cc(N2CCOC[C@@H]2C)nc2[nH]c(-c3cc[nH]n3)cc12 | –
18000 | 7.7 | 40 | 2.52 | 15.9 | 0.004 | 160 (≈ 417 µM) | 1110 | C[C@@H]1COCCN1c1cc(N2CCOC[C@@H]2C)nc2[nH]c(-c3cc[nH]n3)nc12 | –
6000 | – | 15.5 | 0.61 | 25.6 | 0.004 | 53 (≈ 124 µM) | 7140 | C[C@@H]1COCCN1c1cc(N2CCOC[C@@H]2C)nc2[nH]c(-c3cc(O)ccc3F)nc12 | –
42 | 15 | – | – | – | – | – | – | C[C@@H]1COCCN1c1cc(N2CCOC[C@@H]2C)cc2sc(-c3cc[nH]n3)nc12 | –
21000 | – | 8.24 | 0.66 | 12.7 | 0.021 | 250 (≈ 624 µM) | 24000 | C[C@@H]1COCCN1c1cc(N2CCOC[C@@H]2C)nc2[nH]c(-c3nccs3)nc12 | –
4900 | 16 | – | – | – | – | – | – | C[C@@H]1COCCN1c1nc(N2CCOC[C@@H]2C)nc2[nH]c(-c3cc[nH]n3)nc12 | –
9200 | 6.6 | 8.04 | 0.84 | 9.57 | 0.036 | < 2 | 2250 | C[C@@H]1COCCN1c1cc(N2C3CCC2COC3)nc2[nH]c(-c3ccccn3)nc12 | –
– | 5 | 25.4 | – | 27.4 | 0.006 | – | – | C[C@@H]1COCCN1c1nc(N2CCOC[C@@H]2C)nc2sc(-c3cc[nH]n3)nc12 | Activity [10]: Toxic; Activity [11]: 0.3%; Activity [12]: 1.3%; microsomal CLint at 1 µM [13]: 92 µL/min/mg; IC50 (Cytochrome P450 3A4 [14]): 33200 nM; microsomal CLint at 1 µM [15]: 82 µL/min/mg; Activity [16]: 0.15%; Activity [17]: Toxic; IC50 (CYP2D6): > 50000 nM; Activity [18]: 0.15%; microsomal CLint at 1 µM [19]: 26 µL/min/mg; Activity [20]: 253; IC50 (CYP2C9): > 50000 nM; Activity [21]: Toxic; Activity [22]: Toxic; Activity [23]: Toxic; microsomal CLint at 1 µM [24]: 22 µL/min/mg; Activity [25]: Toxic
960 | 96 | – | – | – | – | – | – | C[C@@H]1COCCN1c1nc(N2CCOC[C@@H]2C)cc2sc(-c3cc[nH]n3)nc12 | –
11000 | 46 | – | – | – | – | – | – | C[C@@H]1COCCN1c1nc(N2CCOC[C@@H]2C)cc2[nH]c(-c3cc[nH]n3)nc12 | –
